These results are taken from patent US20180346525A1, “DIAGNOSTIC AND THERAPEUTIC QUORUM-SENSING-MANIPULATION MOLECULES THAT ARE TRACKABLE FOR HEALTH-CARE AND INDUSTRIAL SYSTEMS” (The Trustees of Princeton University, priority 2017, published 2018).

The assay deals with S. aureus Agr QS (AgrC-I/AgrA, agrP3 promoter). The assay is described as follows: Agr QS fluorescence reporter (agrP3-mkate2) in S. aureus reporter strain. Type of assay: cell-based, Staphylococcus aureus. The conditions noted are these: FIG. 3. An excerpt: FIG. 1 illustrates the Agr QS responses of S. aureus to exogenously supplied agonists and antagonists or conjugates of those compounds attached to detectable moieties. To follow the QS status of S. aureus cells, confocal microscopy and an S. aureus reporter strain that produced the fluorescent protein mKate2 in response to exogenous addition of AIP-I was used. The reporter strain was a ΔagrBDCA ΔRNAIII S. aureus mutant harboring agrCA driven by the native agrP2 promoter. […] The plasmid also harbored the Agr-activated agrP3 promoter fused to mkate2. […] This QS response was repressed by the administration of AIP-II. […] However, once the cells detected the exogenous autoinducers, the cells produced mKate2 (red fluorescent protein). […]
Transcription from fluorescence reporter genes was measured in S. aureus strain MK242. […] Using a Synergy 2 plate reader (Biotek, Winooski, Vt.), GFPmut2 and mKate2 levels were measured at 484 nm/528 nm and 588 nm/633 nm, respectively. […]
Imaging was performed using a Nikon Eclipse Ti inverted microscope (Melville, N.Y.) fitted with a Yokogawa CSU X-1 confocal spinning disk scanning unit (Biovision Technologies, Exton, Pa.) and DU-897 X-9351 camera (Andor, Concord, Mass.). […] In the area of an individual cell, both the constitutive GFPmut2 fluorescence and the QS controlled mKate2 fluorescence were measured, subtracted from background signals and summed. […]

As to AIP-I, the “Specific binding to AgrC receptors, indicated by AIP-II competition” value was “specifically bind to AgrC receptors”. Moreover, the “mKate2 production in the reporter strain” value (1 μM compound alone) is “produced”.
